Reference: patent EP0183439B1, “Polycyclic compounds, their preparation and use and formulations containing them” (THE WELLCOME FOUNDATION LIMITED, priority 1984, dated 1986)
Where a name gives a salt, the structure may show the parent alone.

Tests used:
P388/0 tumor cells = assay: Lymphocytic Leukemia P388/0 Test; format: in vivo, CD2-F₁ mice; conditions: ratio of median survival time treated/control at optimal dose; i.p. days 1, 5, 9; 10⁶ P388/0 cells i.p. on day 0
Source text: Methods for evaluating the antitumor activity of these compounds are essentially those used in the Tumor Panel by the Development Therapeutics Program, Division of Cancer Treatment, National Cancer Institute, A. Goldin, et al., Methods in Cancer Research, Vol. XVI, p. 165, Academic Press (1979). Some modifications, in dose level and schedule have been made to increase the testing efficiency.
(§1) CD2-F₁ mice, of the same sex, weighing within a 3 g range surrounding 20 g, are used for this test. Control and test animals are injected intraperitoneally with a suspension of 10⁶ viable P388/0 tumor cells on day 0. In each test several dose levels which bracket the LD₂₀ for the compound are evaluated; each dose level group contains 6 animals. The test compounds are prepared either in physiologic saline containing 0.05% Tween 80 or distilled water containing 5% dextrose and are administered intraperitoneally on days, 1, 5, and 9 relative to tumor implant.
Doses are on a mg/kg basis according to individual animals' body weights. The day of death for each animal is recorded, the median identified for each group and the ratios of median survival time for treated (T)/control (C) groups are calculated. The criterion for activity is T/C x 100 120%.

[1] = LD20 in the P388/0 test (toxicity in mice); format: in vivo
Method: as §1

[2] = intraperitoneally on days 1, 5 and 9

SMILES | T/C x 100% (Exluding 30 Day Survivors) (P388/0 tumor cells) | LD₂₀ ([1]; mouse, in vivo, ip) | LD₂₀ [1, 2]
CC(CO)(CO)NCc1cccc2sc3ccccc3c12 [Example 1, 2-[(1-Dibenzothiophenylmethyl)amino]-2-methyl-1,3-propanediol hydrochloride] | +140% | 240 mg/kg | –
CC(CO)(CO)NCc1c2ccccc2cc2sccc12 [Example 6B, 2-[(Naphtho[2,3-b]thiophen-4-ylmethyl)amino]-2-methyl-1,3-propanediol hydrochloride 1/20 hydrate] | +125% | 150 mg/kg | –
CC(CO)(CO)NCc1c2ccccc2nc2ccccc12 [Example 13, 2-[(9-Acridinylmethyl)amino]-2-methyl-1,3-propanediol dihydochoride] | +130% | 540 mg/kg | –
CC(CO)(CO)NCc1cc2ccsc2c2ccccc12 [Example 10C, 2-Methyl-2-[(naphtho[1,2-b]thiophene-5-ylmethyl)amino]-1,3-propanediol] | +125% | – | 115 mg/kg
CC(CO)(CO)NCc1cccc2c1sc1ccccc12.Cl [Example 3, 2-[(4-Dibenzothiophenylmethyl)amino]-2-methyl-1,3-propanediol hydrochloride] | +155% | – | 200 mg/kg
CC(CO)(CO)NCc1ccc2oc3ccccc3c2c1.Cl [Example 5, 2-[(2-Dibenzofuranylmethyl)amino]-2-methyl-1,3-propanediol hydrochloride] | +120% | – | 225 mg/kg
CC(CO)(CO)NCc1cccc2oc3ccccc3c12 [Example 4B, 2-[(1-Dibenzofuranylmethyl)amino]-2-methyl-1,3-propanediol hydrochloride] | +140% | – | 200 mg/kg
CC(CO)(CO)NCc1ccc2sc3ccccc3c2c1.Cl [Example 2, 2-[(2-Dibenzothiophenylmethyl)amino]-2-methyl-1,3-propanediol hydrochloride] | +130% | – | 200 mg/kg
